Data as given in US11147801B2, “Methods of use for trisubstituted benzotriazole derivatives as dihydroorotate oxygenase inhibitors” (Aurigene Discovery Technologies Limited, priority 2017, dated 2021).

How the values were obtained:
[1] = tested on: MOLM-13 tumors; assay: MOLM-13 acute myeloid leukemia xenograft model; assay type: in vivo
Protocol: In vivo efficacy studies with Compound 1 were performed to assess the in vitro to in vivo translation of effects on blockade of DHODH and tumor cell growth inhibition. 1×10^6 MOLM-13 cells were implanted subcutaneously into CB17 SCID mice. Mice (n=15/group) were treated with vehicle or Compound 1 at 100 mg/kg BID PO once tumors reached an average of ˜150 mm^3. At end of the study, tissues were collected at the indicated timepoints post-last dose for pharmacokinetic (PK) and pathway biomarker analyses.

[2] = tested on: HCC1143; assay: Triple negative breast cancer cell line panel, 96 hours; assay type: cell-based, human; conditions: HCC1143, 96 hours
From the text: (§1) A panel of triple negative cancer cell lines (TNBC) were screened to evaluate whether a subset of TNBC could potentially benefit from treatment with compound 1 as a single agent.

[3] = tested on: BTS49; assay: as above; assay type: cell-based, human; conditions: BTS49, 96 hours
From the text: as §1

[4] = tested on: HCC38; assay: as above; assay type: cell-based, human; conditions: HCC38, 96 hours
From the text: as §1

[5] = tested on: HCC1806; assay: as above; assay type: cell-based, human; conditions: HCC1806, 96 hours
From the text: as §1

[6] = tested on: Ramos cells; assay: Ramos proliferation assay (XTT); assay type: cell-based; conditions: Homo sapiens, 72 hrs
From the text: Cell proliferation assay is a sensitive method for quantification of viable cells in cytotoxicity or proliferation assay. The XTT (2,3-bis[2-Methoxy-4-nitro-5-sulfophenyl]-2 H-tetrazolium-5-carboxyanilide inner salt) system is a means of measuring the activity of living cells via mitochondrial dehydrogenases. Mitochondrial dehydrogenases of viable cells cleave the tetrazolium ring of XTT, yielding orange formazon crystals which are soluble in aqueous solutions. The XTT solution is potentiated by the addition of an electron coupling agent, phenazine methosulphate (PMS) to the reaction. The resulting orange colour is spectrophotometrically measured at 450 nm. An increase or decrease in cell numbers results in a concomitant change in the amount of formazon formed, indicating the degree of cytotoxicity caused by the test material.
Dissolve 17.7 g IMDM (Iscove's Modified Dulbecco's Medium) powder, 1.5 g sodium bicarbonate pH 7.2-7.4 in 1 L MiliQ water, add 1% Pencilin/ Streptomycin and 10% FBS.
Dissolve 10.6 g Ham's F12 powder, 1.5 g sodium bicarbonate pH 7.2-7.4 in 1 L MiliQ water, add 1% Penicillin/Streptomycin. DMSO used as vehicle.
Ramos cells were re-suspended to a density of 1×10^5 cells/ ml in complete IMDM medium. 95 μL of this cell suspension was added to the 96-well plate to seed ˜10,000 cells per well. The plates were incubated at 37° C. under a humidified atmosphere of 5% CO2 for ˜1 hour before compound addition.
Test compounds (Refer to Table 1) were dissolved in 100% DMSO to generate a 2/6/10/20 mM stock solution. A 200× concentration of the required final concentrations was prepared in DMSO. 10 μL of each concentration (200×) was then diluted in 90 μL of serum-free Ham's F12 medium to get an intermediate concentration of 20× in medium. The DMSO concentration in this step is 10% (Intermediate dilution). 5 μL of each intermediate dilution was then added in triplicates in the previously seeded 96-well plate. The final DMSO concentration was 0.5% in the experimental wells. Cells treated with 0.5% DMSO served as positive control. 100 μL, of complete IMDM medium served as media blank for data analysis. 200 μL, of 1× PBS was added in all corner wells of the assay plate. Plates were then incubated for 72 hrs in an incubator with 5% CO2 at 37° C.
On termination day, 100 μl of XTT solution (1 mg/ml XTT supplemented with 25 μM PMS in Ham's F12 medium) was added to each well. Plates were incubated for 2 hrs. The amount of formazon produced was determined by reading the absorbance of the plate using VICTOR X5 multilabel plate reader at wavelength of 450 nm. The IC50 values were determined as concentrations that reduced cell viability by 50% and the curve was plotted with GraphPad Prism 6.0.
Percent (%) Inhibition was calculated by normalizing DMSO control values to 100% using the formula: % Inhibition=[…](Abs450test compound−blank)/(Abs450positive control−blank)*100
Test compound contains cells, test compound, IMDM medium and 0.5% DMSO
Positive control contains cells, IMDM medium and 0.5% DMSO
Blank contains IMDM medium

[7] = tested on: DU4475; assay: Triple negative breast cancer cell line panel, 96 hours; assay type: cell-based, human; conditions: DU4475, 96 hours
Protocol: FIG. 10 is a curve showing the relative growth rate of the DU4475 triple negative breast cancer line treated with various concentrations of Compound 1 for 96 hours.
as §1

[8] = tested on: cell lines of heme lineage; assay: Follow-up screen on expanded panel of cell lines of heme lineage, 4-day growth assay; assay type: cell-based, human
Protocol: (§2) A follow-up screen was performed on an expanded panel of cell lines of heme lineage in a 4-day growth assay. Growth was assessed by Cell-Titer Glo measurements on day 0 and day 4.
(§3) Compound 1, of which diffuse large B cell lymphoma (DLBCL) lines were particularly sensitive (8/11 or 73%). A subset of the heme lines that were of intermediate sensitivity (defined as >50% and <75% growth rate inhibition) or insensitive (defined as <50% growth rate inhibition) to compound 1 in this follow-up screen were subjected to extended growth assays to evaluate if increased treatment time modulated their sensitivity profile. Specifically, these heme lines were pretreated with Compound 1 for three days at the indicated concentrations and then re-plated for a standard 4-day growth assay in fresh media/drug.

[9] = tested on: HuNS1; assay: Heme line growth assay (Cell-Titer Glo), 4-day and extended 7-day; assay type: cell-based, human; design: key to Sensitivity 7-day: *: insensitive; **: intermediate; ***: sensitive
Protocol: as §2, §3

[10] = tested on: OCILY-19 tumors; assay: OCILY-19 diffuse large B-cell lymphoma xenograft model; assay type: in vivo, CB17 SCID mice
Protocol: 7×10^6 OCILY-19 cells were implanted subcutaneously into CB17 SCID mice. Mice (n=15-18/group) were treated with vehicle or Compound 1 at the indicated dose/frequency once tumors reached an average of ˜150 mm^3. Tissues were collected at the indicated timepoints post-last dose for PK and biomarker analyses.

Cc1ccccc1-c1ccc(-c2cc(C(=O)O)c3c(c2)nnn3C)cc1 [Compound 1, 1-methyl-5-(2′-methyl-[1,1′-biphenyl]-4-yl)-1H-benzo[d][1,2,3]triazole-7-carboxylic Acid]
Tolerability ([1]; 100 mg/kg BID PO, CB17 SCID mice): well tolerated | Tumor growth inhibition (TGI) ([1]; 100 mg/kg BID PO, MOLM-13 xenograft, 14 days): near complete tumor growth inhibition | Reduction of tumor uridine pools ([1]; 100 mg/kg BID, MOLM-13 tumors, depending on the timepoint): ~60% | Tumor levels of dihydroorotate (DHO) ([1]; 100 mg/kg BID, MOLM-13 tumors, over 12 hrs after last dose, baseline BQL<120 ng/g): dramatic increase | Pharmacokinetics profile in plasma and tumor ([1]; 100 mg/kg BID, after last dose): drop in drug concentrations by 12 hrs | Sensitivity [2]: insensitive | Sensitivity [3]: insensitive | Sensitivity [4]: insensitive | Sensitivity [5]: insensitive | inhibition at 30 µM ([6]; 30 μM, read-out: Maximum % Inhibition at 30 μM): 107% | IC50 ([6]; XTT): 49 nM | Cell viability/growth [7]: robustly impaired cell viability/growth | Share of diffuse large B cell lymphoma (DLBCL) lines that were sensitive ([8]; 8/11 lines): 73% | Share of the heme lines screened that exhibited sensitivity ([8]; 20/80 lines): 25% | Sensitivity 7-day ([9]; HuNS1, 3 days pretreatment then 4-day growth assay): *** | Sensitivity 4-day ([9]; HuNS1, multiple myeloma, 4-day growth assay): * (insensitive) | Efficacy of dosing regimen ([10]; 100 mg/kg BID compared to 10 and 30 mg/kg BID): superior efficacy | Tumor DHO ([10]; 100 mg/kg BID versus 10 and 30 mg/kg BID, OCILY-19 tumors): larger increase | Total tumor uridine pools ([10]; 100 mg/kg BID, OCILY-19 tumors): decrease | Efficacy of dosing regimen ([10]; 200 mg/kg QD compared to 100 mg/kg BID): less efficacious | In vivo tumor growth ([10]; OCILY-19 DLBCL xenograft, CB17 SCID mice): strong block in in vivo tumor growth | Half-life in mice ([10]; mice): short half-life
